The assay concerns the target NAD-dependent protein deacetylase HST2 (Saccharomyces cerevisiae S288c) (UniProt P53686). The assay can be described thus: Ratio of Vmax to Km for Saccharomyces cerevisiae Hst2.

Chain of NAD-dependent protein deacetylase HST2 (Saccharomyces cerevisiae S288c) (P53686 whole entry): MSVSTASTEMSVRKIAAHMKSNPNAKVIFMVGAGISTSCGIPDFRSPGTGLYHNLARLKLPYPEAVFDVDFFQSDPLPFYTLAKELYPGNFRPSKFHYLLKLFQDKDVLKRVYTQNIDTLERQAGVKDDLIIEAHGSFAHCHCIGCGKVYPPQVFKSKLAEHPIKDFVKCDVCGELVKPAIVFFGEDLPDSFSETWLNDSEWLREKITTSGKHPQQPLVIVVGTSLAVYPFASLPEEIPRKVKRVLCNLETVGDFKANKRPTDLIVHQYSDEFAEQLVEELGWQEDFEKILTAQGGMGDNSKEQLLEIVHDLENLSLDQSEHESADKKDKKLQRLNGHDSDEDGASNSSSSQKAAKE

Consider `C[C@H](NC(=O)[C@H](CCCCNC(N)=O)NC(=O)CNC(=O)CNC(=O)[C@@H](NC(=O)[C@H](CO)NC(=O)[C@@H](N)CCCCN)[C@@H](C)O)C(=O)N1CCC[C@H]1C(=O)N[C@@H](CCCNC(=N)N)C(=O)N[C@@H](CCCCN)C(=O)N[C@@H](CCC(N)=O)C(=O)O`, for which the Ratio is 7.4 ×10³ /M/s.

The values above are taken from ChEMBL document CHEMBL1156528, “Acetyl-lysine analog peptides as mechanistic probes of protein deacetylases” (J Biol Chem, 2007).
